For ten molecules, fold induction and IC50 results are on record in patent US11530229B2, “Cyano cyclobutyl compounds for CBL-B inhibition and uses thereof” (Nurix Therapeutics, Inc., priority 2019, dated 2022).

Assay [1] relates to primary human total T-cells. Nature of the assay: T-cell activation, IL-2 secretion, Biological Example 2. Conditions: 48 hours, fold change over baseline; for fold induction at 0.3 µM: 0.3 μM inhibitor; for fold induction at 1 µM: 1 μM inhibitor; for fold induction at 3 µM: 3 μM inhibitor. The format is cell-based.
The subject of assay [2] is primary human total T-cells. Nature of the assay: T-cell activation, CD25 surface staining, Biological Example 2. As to conditions: 48 hours, fold change over baseline; for fold induction at 0.3 µM: 0.3 μM inhibitor; for fold induction at 1 µM: 1 μM inhibitor; for fold induction at 3 µM: 3 μM inhibitor. Type of assay: cell-based.
In another assay the target is Cbl-b (Homo sapiens (Human), UniProt Q13191). Nature of the assay: Cbl-b displacement assay (Cbl-b inhibition assay), Biological Example 1. The format is binding. How it is done: Candidate compounds were evaluated for their ability to bind and inhibit Cbl-b, an E3 ubiquitin-protein ligase, as evidenced by their ability to displace a fluorophore-labeled probe (Example 59) bound to Cbl-b.
Cbl-b, sequence (Q13191 36-427): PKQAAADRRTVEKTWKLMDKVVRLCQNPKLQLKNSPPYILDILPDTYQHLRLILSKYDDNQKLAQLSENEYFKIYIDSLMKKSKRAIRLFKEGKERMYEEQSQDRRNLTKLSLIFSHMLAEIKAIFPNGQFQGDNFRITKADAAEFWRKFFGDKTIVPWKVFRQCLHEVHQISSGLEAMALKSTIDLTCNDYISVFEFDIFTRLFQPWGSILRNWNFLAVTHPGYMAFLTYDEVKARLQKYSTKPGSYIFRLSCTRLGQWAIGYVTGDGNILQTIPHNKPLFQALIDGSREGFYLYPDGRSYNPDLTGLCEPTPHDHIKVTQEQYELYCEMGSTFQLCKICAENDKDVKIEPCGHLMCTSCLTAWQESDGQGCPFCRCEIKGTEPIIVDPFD
The ability of candidate compounds to displace a known inhibitor and thereby inhibit Cbl-b activity was measured by monitoring the interaction of Cbl-b with a fluorophore-labeled probe in the presence of the candidate compound. A truncated variant of Cbl-b (UniProt number Q13191; SEQ ID NO:1) containing an Avitag at its N-terminus was co-expressed with BirA biotin ligase and purified using a standard protocol (see Dou et al., Nature Structural and Molecular Biology, 8: 982-987, 2013; Avidity LLC).
Cbl-b Amino Acid Residues 36-427:
Fluorescently-labeled inhibitor probe was synthesized and tagged with BODIPY FL (Example 59). Cbl-b displacement assays were performed in a 384-well plate at room temperature in a 10 μL reaction volume by pre-incubating 0.5 nM Cbl-b or 0.125 nM Cbl-b (final concentration, indicated as “High” and “Low”, respectively) in an assay buffer containing 20 mM HEPES pH 7.5, 150 mM NaCl, 0.01% Triton X-100, 0.01% BSA and 0.5 mM TCEP in the presence of a candidate compound in 1% DMSO (final concentration) for 1 hour. After incubation in the presence of the candidate compound, the plate was incubated for an additional 1 hour in the presence of an approximate EC40 binding saturation consisting of 150 nM fluorescently-labeled inhibitor probe and 2 nM Streptavidin-Terbium (Cisbio) (final concentrations). Following the 1 hour incubation, the plates were read for TR-FRET signal at […] using an Envision plate reader (Perkin Elmer).

[3] abbreviates: anti-CD3 and anti-CD28 co-stimulation.
Where [4] appears, read: anti-CD3 and anti-CD28 co-stimulation, read-out: IL-2 secretion CD3/CD28 1 μM.
[5] abbreviates: anti-CD3 stimulation alone, read-out: IL-2 secretion CD3 1 μM.
The mark [6] stands for this setting: anti-CD3 and anti-CD28 co-stimulation, read-out: CD25 staining CD3/CD28 1 μM.
The mark [7] stands for this setting: anti-CD3 stimulation alone, read-out: CD25 staining CD3 1 μM.
Where [8] appears, read: 0.125 nM Cbl-b final concentration (Low), read-out: Cbl-b activity IC50 (Low).
Setting [9] is: read-out: IC50 values in the Cbl-b inhibition assay of Biological Example 1.

Where two headings read alike, the source gives them in different places.

The term IC50 denotes the concentration that gives 50% inhibition.

As for `C[C@@H]1CN(Cc2cc3c(c(C(F)(F)F)c2)CN(c2cccc([C@]4(Cc5nncn5C)C[C@@H](C#N)C4)c2)C3=O)C[C@H](C)O1` [Compound 15, (1R,3r)-3-(3-(6-(((2R,6S)-2,6-dimethylmorpholino)methyl)-1-oxo-4-(trifluoromethyl)isoindolin-2-yl)phenyl)-3-((4-methyl-4H-1,2,4-triazol-3-yl)methyl)cyclobutane-1-carbonitrile], the fold induction at 0.3 µM in assay [1] (setting [3]) is not above 15; in assay [2] (setting [3]), 1.24 to 1.39. Further, the fold induction at 1 µM in assay [1] (setting [4]) is 15 to 20; in assay [1] (setting [5]), 0.4 to 0.85; in assay [2] (setting [6]) it was 1.24 to 1.39; in assay [2] (setting [7]) it was 1 to 1.15. For the same molecule, the fold induction at 3 µM in assay [1] (anti-CD3 stimulation alone) is more than 0.85; in assay [2] (anti-CD3 stimulation alone), 1 to 1.15. Moreover, on Cbl-b (setting [8]), the IC50 was 2 to 5 nM.

For the molecule `Cn1cnnc1C[C@]1(c2cccc(N3Cc4c(cc(CN5CCC[C@H](C(F)(F)F)C5)cc4C(F)(F)F)C3=O)c2)C[C@H](C#N)C1` [Compound 14, (1R,3r)-3-((4-methyl-4H-1,2,4-triazol-3-yl)methyl)-3-(3-(1-oxo-4-(trifluoromethyl)-6-(((S)-3-(trifluoromethyl)piperidin-1-yl)methyl)isoindolin-2-yl)phenyl)cyclobutane-1-carbonitrile], the fold induction at 0.3 µM was 15 to 20 in assay [1] (setting [3]) and not above 1.24 in assay [2] (setting [3]). In addition, the fold induction at 1 µM in assay [1] (setting [4]) is 15 to 20; in assay [1] (setting [5]), 0.4 to 0.85; in assay [2] (setting [6]), not above 1.24; in assay [2] (setting [7]) it was not above 1. Further, the fold induction at 3 µM is 0.4 to 0.85 in assay [1] (anti-CD3 stimulation alone) and not above 1 in assay [2] (anti-CD3 stimulation alone). At Cbl-b (setting [8]), the IC50 was in the range of 2 to 5 nM.

Take `Cn1cnnc1C[C@]1(c2cccc(N3Cc4c(cc(CN5CCCCC(CO)C5)cc4C(F)(F)F)C3=O)c2)C[C@H](C#N)C1` (some centres unmarked) [Compound 48, (1r,3r)-3-(3-(6-((3-(hydroxymethyl)azepan-1-yl)methyl)-1-oxo-4-(trifluoromethyl)isoindolin-2-yl)phenyl)-3-((4-methyl-4H-1,2,4-triazol-3-yl)methyl)cyclobutane-1-carbonitrile]: the values for the fold induction at 0.3 µM in assay [1] (setting [3]) and in assay [2] (setting [3]) were not above 15 and more than 1.39, respectively. In addition, the fold induction at 1 µM is more than 20 in assay [1] (setting [4]), 0.4 to 0.85 in assay [1] (setting [5]), more than 1.39 in assay [2] (setting [6]) and more than 1.15 in assay [2] (setting [7]). For the same molecule, the fold induction at 3 µM in assay [1] (anti-CD3 stimulation alone) was 0.4 to 0.85; in assay [2] (anti-CD3 stimulation alone), more than 1.15. The IC50 on Cbl-b (setting [8]) and at Cbl-b (setting [9]) was 1 to 2 nM in each case.

For `Cn1cnnc1C[C@]1(c2cccc(N3Cc4c(cc(CNC5CC6(C5)CC6(F)F)cc4C(F)(F)F)C3=O)c2)C[C@H](C#N)C1` (some centres unmarked) [Compound 23, (1r,3r)-3-(3-(6-(((1,1-difluorospiro[2.3]hexan-5-yl)amino)methyl)-1-oxo-4-(trifluoromethyl)isoindolin-2-yl)phenyl)-3-((4-methyl-4H-1,2,4-triazol-3-yl)methyl)cyclobutane-1-carbonitrile], the values for the fold induction at 0.3 µM in assay [1] (setting [3]) and in assay [2] (setting [3]) were 15 to 20 and 1.24 to 1.39, respectively. In addition, the fold induction at 1 µM in assay [1] (setting [4]) is 15 to 20; in assay [1] (setting [5]), 0.4 to 0.85; in assay [2] (setting [6]), 1.24 to 1.39; in assay [2] (setting [7]), 1 to 1.15. Moreover, the fold induction at 3 µM fell in the range of 0.4 to 0.85 in assay [1] (anti-CD3 stimulation alone) and 1 to 1.15 in assay [2] (anti-CD3 stimulation alone). The IC50 at Cbl-b (setting [8]) and on Cbl-b (setting [9]) was 1 to 2 nM throughout.

For `Cn1cnnc1C[C@]1(c2cccc(N3Cc4c(cc(CN5CCCCC(C)(F)C5)cc4C(F)(F)F)C3=O)c2)C[C@H](C#N)C1` (some centres unmarked) [Compound 26, (1r,3r)-3-(3-(6-((3-fluoro-3-methylazepan-1-yl)methyl)-1-oxo-4-(trifluoromethyl)isoindolin-2-yl)phenyl)-3-((4-methyl-4H-1,2,4-triazol-3-yl)methyl)cyclobutane-1-carbonitrile], the fold induction at 0.3 µM in assay [1] (setting [3]) was not above 15; in assay [2] (setting [3]) it was not above 1.24. Moreover, the fold induction at 1 µM in assay [1] (setting [4]) is not above 15; in assay [1] (setting [5]) it was less than 0.4; in assay [2] (setting [6]) it was not above 1.24; in assay [2] (setting [7]) it was not above 1. The fold induction at 3 µM in assay [1] (anti-CD3 stimulation alone) is less than 0.4; in assay [2] (anti-CD3 stimulation alone), not above 1. Moreover, the IC50 on Cbl-b (setting [8]) lay within 2 to 5 nM.

Turning to `CCC1COCCN(Cc2cc3c(c(C(F)(F)F)c2)CN(c2cccc([C@]4(Cc5nncn5C)C[C@@H](C#N)C4)c2)C3=O)C1` (some centres unmarked) [Compound 43, (1r,3r)-3-(3-(6-((6-ethyl-1,4-oxazepan-4-yl)methyl)-1-oxo-4-(trifluoromethyl)isoindolin-2-yl)phenyl)-3-((4-methyl-4H-1,2,4-triazol-3-yl)methyl)cyclobutane-1-carbonitrile], the results for the fold induction at 0.3 µM in assay [1] (setting [3]) and in assay [2] (setting [3]) were not above 15 and not above 1.24, respectively. Moreover, the fold induction at 1 µM in assay [1] (setting [4]) is more than 20; in assay [1] (setting [5]) it was 0.4 to 0.85; in assay [2] (setting [6]), not above 1.24; in assay [2] (setting [7]) it was 1 to 1.15. The figures for the fold induction at 3 µM in assay [1] (anti-CD3 stimulation alone) and in assay [2] (anti-CD3 stimulation alone) were 0.4 to 0.85 and 1 to 1.15, respectively. Moreover, on Cbl-b (setting [8]), the IC50 was in the range of 2 to 5 nM.

Consider `CN(Cc1cc2c(c(C(F)(F)F)c1)CN(c1cccc([C@]3(Cc4nncn4C)C[C@@H](C#N)C3)c1)C2=O)C1CC(F)(F)C1` [Compound 22, (1r,3r)-3-(3-(6-(((3,3-difluorocyclobutyl)(methyl)amino)methyl)-1-oxo-4-(trifluoromethyl)isoindolin-2-yl)phenyl)-3-((4-methyl-4H-1,2,4-triazol-3-yl)methyl)cyclobutane-1-carbonitrile], for which the figures for the fold induction at 0.3 µM in assay [1] (setting [3]) and in assay [2] (setting [3]) were not above 15 and more than 1.39, respectively. In addition, the fold induction at 1 µM in assay [1] (setting [4]) was not above 15; in assay [1] (setting [5]), 0.4 to 0.85; in assay [2] (setting [6]), more than 1.39; in assay [2] (setting [7]) it was 1 to 1.15. Moreover, the results for the fold induction at 3 µM in assay [1] (anti-CD3 stimulation alone) and in assay [2] (anti-CD3 stimulation alone) were 0.4 to 0.85 and 1 to 1.15, respectively. The IC50 at Cbl-b (setting [8]) and at Cbl-b (setting [9]) was 2 to 5 nM throughout.

As to `C[C@@H]1CN(Cc2cc3c(c(C(F)(F)F)c2)CN(c2cccc([C@]4(Cc5nncn5C)C[C@](C)(C#N)C4)c2)C3=O)CCO1` [Compound 10, (1S,3s)-1-methyl-3-((4-methyl-4H-1,2,4-triazol-3-yl)methyl)-3-(3-(6-(((R)-2-methylmorpholino)methyl)-1-oxo-4-(trifluoromethyl)isoindolin-2-yl)phenyl)cyclobutane-1-carbonitrile], the fold induction at 0.3 µM was not above 15 in assay [1] (setting [3]) and not above 1.24 in assay [2] (setting [3]). The fold induction at 1 µM is not above 15 in assay [1] (setting [4]), less than 0.4 in assay [1] (setting [5]), not above 1.24 in assay [2] (setting [6]) and not above 1 in assay [2] (setting [7]). The fold induction at 3 µM in assay [1] (anti-CD3 stimulation alone) was less than 0.4; in assay [2] (anti-CD3 stimulation alone) it was not above 1. Further, the IC50 on Cbl-b (setting [8]) and on Cbl-b (setting [9]) was not below 20 nM each time.

Take `CC1CCCCN(Cc2cc3c(c(C(F)(F)F)c2)CN(c2cccc([C@]4(Cc5nncn5C)C[C@@H](C#N)C4)c2)C3=O)C1` (some centres unmarked) [Compound 25, (1r,3r)-3-((4-methyl-4H-1,2,4-triazol-3-yl)methyl)-3-(3-(6-((3-methylazepan-1-yl)methyl)-1-oxo-4-(trifluoromethyl)isoindolin-2-yl)phenyl)cyclobutane-1-carbonitrile]: the fold induction at 0.3 µM in assay [1] (setting [3]) was more than 20; in assay [2] (setting [3]), 1.24 to 1.39. For the same molecule, the fold induction at 1 µM in assay [1] (setting [4]) is more than 20; in assay [1] (setting [5]), more than 0.85; in assay [2] (setting [6]) it was 1.24 to 1.39; in assay [2] (setting [7]), 1 to 1.15. Further, the fold induction at 3 µM was more than 0.85 in assay [1] (anti-CD3 stimulation alone) and not above 1 in assay [2] (anti-CD3 stimulation alone). Also, the IC50 at Cbl-b (setting [8]) and at Cbl-b (setting [9]) was less than 1 nM throughout.

With `Cn1cnnc1C[C@]1(c2cccc(NC(=O)c3cc(CN4CCC5(CC5)C4)cc(C4CC4)n3)c2)C[C@H](C#N)C1` [Compound 53, 4-((5-azaspiro[2.4]heptan-5-yl)methyl)-N-(3-((1r,3r)-3-cyano-1-((4-methyl-4H-1,2,4-triazol-3-yl)methyl)cyclobutyl)phenyl)-6-cyclopropylpicolinamide], the fold induction at 0.3 µM in assay [1] (setting [3]) is 15 to 20; in assay [2] (setting [3]), not above 1.24. Moreover, the fold induction at 1 µM is 15 to 20 in assay [1] (setting [4]), 0.4 to 0.85 in assay [1] (setting [5]), not above 1.24 in assay [2] (setting [6]) and 1 to 1.15 in assay [2] (setting [7]). For the same molecule, the fold induction at 3 µM in assay [1] (anti-CD3 stimulation alone) fell in the range of 0.4 to 0.85; in assay [2] (anti-CD3 stimulation alone) it was 1 to 1.15. Besides, the IC50 on Cbl-b (0.5 nM Cbl-b final concentration (High), read-out: Cbl-b activity IC50 (High)) was less than 1 nM.
